Source: ChEMBL document CHEMBL1156829 (Proc Natl Acad Sci U S A, 2008)
pEC50: −log10 of the molar value.

Assays:
[1] = tested on: Plasmodium falciparum; experiment: NOVARTIS: Inhibition of Plasmodium falciparum 3D7 (drug-susceptible) proliferation in erythrocyte-based infection assay; type: functional, organism-based; conditions: Plasmodium falciparum, 3D7
[2] = tested on: Plasmodium falciparum; experiment: NOVARTIS: Inhibition of Plasmodium falciparum W2 (drug-resistant) proliferation in erythrocyte-based infection assay; type: functional, organism-based; conditions: Plasmodium falciparum, W2; read-out: EC50
[3] = NOVARTIS: Cytotoxicity against human hepatocellular carcinoma cell line (Huh7); type: toxicity, cell-based, Huh-7; conditions: Huh7 cells (hepatocellular carcinoma cell line)

## O=C(O)c1ccc(NC(=O)c2ccc(N3C(=O)C4C5C=CC(C5)C4C3=O)cc2)cc1 (configuration not stated)
[1]
  pEC50: < 4.95
[2]
  pEC50: < 4.95
[3]
  CC50: > 100000 nM

## CCOC(=O)c1cc(-c2ccccc2)n(CCC(=O)Nc2ccccc2N2CCN(C)CC2)c1C
[1]
  pEC50: 6.10
[2]
  pEC50: 6.47
[3]
  CC50: 17300 nM

## Cc1cccc(NC(=O)c2sc3nc4c(c(-c5cccs5)c3c2N)CCCCC4)c1
[1]
  pEC50: < 4.90
[2]
  pEC50: 6.00
[3]
  CC50: > 100000 nM

## CC(=C(Cl)Cl)C(Br)=C(Br)CO
[1]
  pEC50: 6.93
[2]
  pEC50: 5.77
[3]
  CC50: 50900 nM

## Cn1nc(C(=O)N2CCCC2)c2c1CCC(NCc1cnc3ccccc3c1)C2 (configuration not stated)
[1]
  pEC50: < 5.90
[2]
  pEC50: < 6.07
[3]
  CC50: > 10000 nM

## Cc1ccc2cc3c(N)c4c(C)ccc(C)c4nc3nc2c1
[1]
  pEC50: 6.37
[2]
  pEC50: 6.51
[3]
  CC50: > 100000 nM

## CC1CCC2C(C)C(O)OC3OC4(C)CCC1C32OO4 (configuration not stated)
[1]
  pEC50: 8.15
[2]
  pEC50: 8.48
[3]
  CC50: > 10000 nM

## CCOc1ccc(NC(=O)NC(Cc2c[nH]c3ccccc23)C(=O)N2CCN(C(=O)NC(C)C)C(C)C2)cc1 (configuration not stated)
[1]
  pEC50: 6.59
[2]
  pEC50: 6.65
[3]
  CC50: > 10000 nM

## c1ccc(-c2ccc(-c3ccccn3)nc2)nc1
[1]
  pEC50: 6.54
[2]
  pEC50: 6.85
[3]
  CC50: 360 nM

## COc1ccc(-n2c(S)nnc2CNc2cccc(C(F)(F)F)c2)cc1
[1]
  pEC50: 5.31
[2]
  pEC50: 5.54
[3]
  CC50: > 100000 nM

## COc1cccc(N2CCN(CCNCCOc3ccccc3)[C@@H](Cc3ccccc3)C2)c1
[1]
  pEC50: 6.15
[2]
  pEC50: 6.42
[3]
  CC50: > 7310 nM

## O=C(Nc1cccnc1)c1cc(-c2cccnc2)nc2ccc(Cl)cc12
[1]
  pEC50: 5.40
[2]
  pEC50: < 4.90
[3]
  CC50: > 100000 nM

## O=c1c2c([nH]c3ccccc13)CCCC2
[1]
  pEC50: 6.20
[2]
  pEC50: 6.00
[3]
  CC50: > 100000 nM

## Cc1ccc(N=Nc2nc3ccccc3n2C)c(C)c1
[1]
  pEC50: 7.06
[2]
  pEC50: 7.62
[3]
  CC50: 3600 nM

## O=C(Nc1ccc(Br)cn1)c1ccc(Oc2cc(Oc3cccc(Cl)c3)cc([N+](=O)[O-])c2)cc1
[1]
  pEC50: < 5.90
[2]
  pEC50: < 5.93
[3]
  CC50: > 10000 nM

## COc1cccc(C(=O)N(C)CCCNc2ccnc3cc(Cl)ccc23)c1
[1]
  pEC50: 6.41
[2]
  pEC50: 6.68
[3]
  CC50: 5930 nM

## O=C1C(=O)N(Cc2ccccc2[N+](=O)[O-])c2ccccc21
[1]
  pEC50: 6.15
[2]
  pEC50: 6.49
[3]
  CC50: > 100000 nM

## CN(c1ncnc2sc3c(c12)CCCC3)C1CCCCC1
[1]
  pEC50: < 6.04
[2]
  pEC50: > 7.43
[3]
  CC50: > 10000 nM

## CCN1C(=Cc2ccc3c4ccoc4ccc3[n+]2CC)C=Cc2c1ccc1occc21
[1]
  pEC50: 6.27
[2]
  pEC50: 6.12
[3]
  CC50: > 10000 nM

## CCCCC(CC)C(=O)NCCCCNc1ccnc2cc(Cl)ccc12 (configuration not stated)
[1]
  pEC50: 6.53
[2]
  pEC50: > 7.87
[3]
  CC50: > 10100 nM

## CC1=C(C(=O)OC(C)C)C(c2ccccc2F)C2=C(CC(C)(C)CC2=O)N1 (configuration not stated)
[1]
  pEC50: < 5.90
[2]
  pEC50: 5.72
[3]
  CC50: > 10000 nM

## Cc1ccc(NC(=O)C2CSC(c3cccc(F)c3)N2C(=O)c2ccc(C(C)(C)C)cc2)cc1C (configuration not stated)
[1]
  pEC50: 6.22
[2]
  pEC50: 8.10
[3]
  CC50: 848 nM

## CCN(CC)Cc1cc2ccc(C)cc2n(CC(=O)OC)c1=O
[1]
  pEC50: < 5.90
[2]
  pEC50: 7.57
[3]
  CC50: > 10000 nM

## CC(C)CNC(=O)c1cnc(NCCc2ccncc2)nc1NCCc1ccccc1
[1]
  pEC50: 6.09
[2]
  pEC50: 6.14
[3]
  CC50: > 10000 nM

## Ic1nc2ccccc2s1
[1]
  pEC50: < 6.53
[2]
  pEC50: 5.87
[3]
  CC50: > 10000 nM

## CCCn1c(=O)c2[nH]c(C3CCCC3)nc2n(CCC)c1=O [1,3-DIPROPYL-8-CYCLOPENTYLXANTHINE [DPCPX]]
[1]
  pEC50: 6.12
[2]
  pEC50: 6.46
[3]
  CC50: […]

## C=CCNCc1cc(-c2cc(OC)ccc2OC)ccc1O
[1]
  pEC50: 5.96
[2]
  pEC50: 6.08
[3]
  CC50: > 10000 nM

## CCCCN(C(=O)c1ccccc1C)c1nc(-c2cc(OC)ccc2OC)cs1
[1]
  pEC50: 5.76
[2]
  pEC50: 5.54
[3]
  CC50: > 100000 nM

## CCc1n(C)c2ccccc2[n+]1CC(=O)c1ccc(Br)cc1
[1]
  pEC50: 5.78
[2]
  pEC50: 5.96
[3]
  CC50: > 10000 nM

## COC(=O)C1=C(C)NC2=C(C(=O)CC(c3ccc(OC)c(OC)c3)C2)C1c1ccccc1Br (configuration not stated)
[1]
  pEC50: 6.87
[2]
  pEC50: 7.14
[3]
  CC50: > 100000 nM

## Cc1cc(NS(=O)(=O)c2ccc(NC(=O)c3ccc([N+](=O)[O-])cc3)cc2)no1
[1]
  pEC50: < 5.90
[2]
  pEC50: < 6.17
[3]
  CC50: > 10000 nM

## COc1cccc2c1OCC(CN1CCC(C(=O)Nc3ccc(-n4cccn4)cc3)CC1)=C2
[1]
  pEC50: 6.09
[2]
  pEC50: < 5.86
[3]
  CC50: > 100000 nM

## O=C1C2C(C(=O)N1c1ccc(Cl)c(C(F)(F)F)c1)C1(c3ccccc3)C(=O)C2(c2ccccc2)C(c2ccccc2)=C1c1ccccc1 (configuration not stated)
[1]
  pEC50: 6.35
[2]
  pEC50: 6.21
[3]
  CC50: > 100000 nM

## O=C(NCc1ccccc1)c1cnc(NCCCn2ccnc2)nc1Nc1ccccc1
[1]
  pEC50: 6.21
[2]
  pEC50: 6.43
[3]
  CC50: > 10000 nM
